# Data taken from patent US11485725B2, “Derivatives of piperlongumine and uses thereof” (Auransa Inc., priority 2017, dated 2022).
# Tests used:
# MOLP-8 = assay: In vitro cell viability assay (CellTiter-Glo, ATP levels), multiple myeloma cells; type: cell-based; conditions: Homo sapiens, MOLP-8, 168 h, 7-day incubation, CellTiter-Glo, average values; read-out: MOLP-8 IC50
# Procedure: (§1) In Vitro Cell Viability Assay
# (§2) The present disclosure provides a method for inhibiting cell viability, as measured by ATP levels. The method for inhibiting cell viability is drawn to contacting various cancer cells with the compounds described herein at various concentrations. The cancer cell lines were maintained in culture conditions at 37° C. in an atmosphere of 5% CO2 in air. The cells growing in an exponential growth phase were harvested and counted for plating. Compounds were incubated in two cancer cell types representing multiple myeloma (MOLP-8) and triple negative breast cancer (DU4475). Cells were plated at an optimized cell numbers per well in 96-well plates and allowed to attach to the plates overnight at approximately 80% confluency.
# (§3) After addition of compounds, plates were incubated for 7-day. At the end of incubation period on day 8, media was removed and replaced with a solution of CellTiter-Glo™ reagent (Promega®) according to protocol. Luminescence was read using an EnVision® multi-label plate reader (Perkin-Elmer®), and signal intensity was calculated relative to positive and negative control wells. Cisplatin was included as the positive control. A dose-response calculation was performed in a non-linear regression fit and by using the Hill equation to calculate a concentration-response curve and 50% inhibitory concentration (IC50) values for each compound.
# (§4) The average IC50 values of compounds 1-15 in multiple myeloma (MOLP-8) and triple negative breast cancer (DU4475) cells are shown in Table 1.
# DU4475 = assay: In vitro cell viability assay (CellTiter-Glo, ATP levels), triple negative breast cancer cells; type: cell-based; conditions: Homo sapiens, DU-4475, 168 h, 7-day incubation, CellTiter-Glo, average values; read-out: DU4475 IC50
# Procedure: as §1, §2, §3, §4
# [1] = tested on: HCT116 (colorectal cancer) cells; assay: Resazurin-based cell viability assay using colorectal cancer cells; conditions: Homo sapiens, HCT-116, 72 hr incubation
# Procedure: Determination of Potency of Compounds in Cell Viability Assay Using Colorectal Cancer Cells
# The blue dye resazurin-based assay was performed to determine cell viability and used according to manufacture protocol (Sigma®). HCT116 (colorectal cancer) cells were seeded in the DMEM medium (10% FBS serum). Approximately 1,500 cells were plated per well in 96 well plates. Cells were allowed to grow at 37° C. for 24 hr in 5% CO2 environment in a humidified incubator. Serially diluted compounds (100 μL) were added to the culture plate after 24 hr. After addition of compounds, plates were incubated for 72 hr. Experiment was terminated at the designated incubation time by replacing the medium with 100 μL of 1 mM of resazurin (Sigma®) prepared in culture medium (DMEM) and were further incubated in culture conditions for 4-6 hours. Fluorescence was recorded using a multimodal plate reader (Biotek Synergy Neo®) at an excitation wavelength of 535 nm and emission wavelength of 590 nm to obtain relative fluorescence units. Data analysis was done by subtracting the background fluorescence (medium blank) value from each reading and then normalizing with the vehicle control (DMSO treated cells) to obtain percent survival/proliferation. IC50 was calculated from percent survival values using GraphPad Prism® (see Table 1).
Structure (SMILES),IC50 (MOLP-8) [nM],IC50 (DU4475) [nM],IC50 [1] [nM]
"C/C(=C\c1cnn(C)c1)C(=O)N1CCC=CC1=O [Compound 69, 1-[(2E)-2-methyl-3-(1-methyl-1H-pyrazol-4-yl)prop-2-enoyl]-5,6-dihydropyridin-2(1H)-one]",1980,4010,14000
"CC1(C)C=CC(=O)N(C(=O)/C=C/C2CCN(C(=O)Nc3ccc(F)cc3)CC2)C1 [Compound 70, (E)-4-(3-(3,3-dimethyl-6-oxo-3,6-dihydropyridin-1(2H)-yl)-3-oxoprop-1-en-1-yl)-N-(4-fluorophenyl)piperidine-1-carboxamide]",1350,1750,7060
"C/C(=C/C1CCN(C(=O)OC(C)(C)C)CC1)C(=O)N1CCC=CC1=O [Compound 71, (Z)-tert-butyl 4-(2-methyl-3-oxo-3-(2-oxo-5,6-dihydropyridin-1(2H)-yl)prop-1-enyl)piperidine-1-carboxylate]",3910,4670,13600
"C/C(=C\C1CCN(C(=O)OC(C)(C)C)CC1)C(=O)N1CCC=CC1=O [Compound 72, tert-butyl (E)-4-(2-methyl-3-oxo-3-(6-oxo-3,6-dihydropyridin-1(2H)-yl)prop-1-en-1-yl)piperidine-1-carboxylate]",2670,4430,10300
"C/C(=C\C1CCN(CC2CC2)CC1)C(=O)N1CCC=CC1=O [Compound 77, (E)-1-(3-(1-(cyclopropylmethyl)piperidin-4-yl)-2-methylacryloyl)-5,6-dihydropyridin-2(1H)-one]",3340,5440,7500
"O=C1C=CCCN1C(=O)/C=C/c1ncc2c(n1)OCCO2 [Compound 80, (E)-1-(3-(6,7-dihydro-[1,4]dioxino[2,3-d]pyrimidin-2-yl)acryloyl)-5,6-dihydropyridin-2(1H)-one]",1150,1800,3210
"Cc1n[nH]c(C)c1/C=C/C(=O)N1CCC=CC1=O [Compound 81, (E)-1-(3-(3,5-dimethyl-1H-pyrazol-4-yl)acryloyl)-5,6-dihydropyridin-2(1H)-one]",1490,2700,5100
"Cn1cc(/C=C(/C(=O)N2CCC=CC2=O)c2ccccc2)cn1 [Compound 83, 1-[(2E)-3-(1-methyl-1H-pyrazol-4-yl)-2-phenylprop-2-enoyl]-5,6-dihydropyridin-2(1H)-one]",2750,4840,11100
"Cn1cc(/C=C(\C(=O)N2CCC=CC2=O)c2ccccc2)cn1 [Compound 84, (Z)-1-(3-(1-methyl-1H-pyrazol-4-yl)-2-phenylacryloyl)-5,6-dihydropyridin-2(1H)-one]",1550,1630,3710
"Cn1cc(/C=C/C(=O)N2CC(C)(C)C=CC2=O)cn1 [Compound 85, (E)-5,5-dimethyl-1-(3-(1-methyl-1H-pyrazol-4-yl)acryloyl)-5,6-dihydropyridin-2(1H)-one]",4600,6790,31000
"C/C(=C/C1CCNCC1)C(=O)N1CCC=CC1=O [Compound 87, (Z)-1-(2-methyl-3-(piperidin-4-yl)acryloyl)-5,6-dihydropyridin-2(1H)-one 2,2,2-trifluoroacetate]",3660,5530,10100
"C/C(=C\C1CCNCC1)C(=O)N1CCC=CC1=O [Compound 88, (E)-1-(2-methyl-3-(piperidin-4-yl)acryloyl)-5,6-dihydropyridin-2(1H)-one 2,2,2-trifluoroacetate]",3780,6560,7060
"O=C1C=CCCN1C(=O)/C=C/c1cn[nH]c1 [Compound 89, (E)-1-(3-(1H-pyrazol-4-yl)acryloyl)-5,6-dihydropyridin-2(1H)-one]",3580,8410,2700

# The next compounds have a lower IC50 (MOLP-8) than those just listed; values first:
IC50 (MOLP-8) [nM],IC50 (DU4475) [nM],IC50 [1] [nM],Structure (SMILES)
380,440,1100,"O=C(Nc1ccc(F)cc1)N1CCC(/C=C/C(=O)N2CCC=CC2=O)CC1 [Compound 58, N-(4-fluorophenyl)-4-[(1E)-3-oxo-3-(6-oxo-3,6-dihydropyridin-1(2H)-yl)prop-1-en-1-yl]piperidine-1-carboxamide]"
310,580,1730,"CC(C)(C)CN1CCC(/C=C/C(=O)N2CCC=CC2=O)CC1 [Compound 62, (E)-1-(3-(1-neopentylpiperidin-4-yl)acryloyl)-5,6-dihydropyridin-2(1H)-one]"
290,480,2110,"COc1cnc(/C=C/C(=O)N2CCC=CC2=O)nc1 [Compound 63, (E)-1-(3-(5-methoxypyrimidin-2-yl)acryloyl)-5,6-dihydropyridin-2(1H)-one]"
210,950,3110,"O=C1C=CCCN1S(=O)(=O)/C=C/c1ncccn1 [Compound 66, 1-{[(E)-2-(pyrimidin-2-yl)ethenyl]sulfonyl}-5,6-dihydropyridin-2(1H)-one]"
760,960,3400,"O=C1C=CCCN1C(=O)/C=C/C1CCN(c2ncccn2)CC1 [Compound 67, 1-{(2E)-3-[1-(pyrimidin-2-yl)piperidin-4-yl]prop-2-enoyl}-5,6-dihydropyridin-2(1H)-one]"
670,1550,7380,"NC(=O)N1CCC(/C=C/C(=O)N2CCC=CC2=O)CC1 [Compound 68, (E)-4-(3-oxo-3-(6-oxo-3,6-dihydropyridin-1(2H)-yl)prop-1-en-1-yl)piperidine-1-carboxamide]"
950,1620,4280,"C/C(=C\C1CCN(C(=O)Nc2ccc(F)cc2)CC1)C(=O)N1CCC=CC1=O [Compound 73, (E)-N-(4-fluorophenyl)-4-(2-methyl-3-oxo-3-(6-oxo-3,6-dihydropyridin-1(2H)-yl)prop-1-en-1-yl)piperidine-1-carboxamide]"
660,1000,2580,"O=C1C=CCCN1C(=O)/C=C/C1CCN(c2ccccn2)CC1 [Compound 74, (E)-1-(3-(1-(pyridin-2-yl)piperidin-4-yl)acryloyl)-5,6-dihydropyridin-2(1H)-one]"
860,1600,4620,"Cn1cc(/C=C/S(=O)(=O)N2CCC=CC2=O)cn1 [Compound 75, 1-{[(E)-2-(1-methyl-1H-pyrazol-4-yl)ethenyl]sulfonyl}-5,6-dihydropyridin-2(1H)-one]"
563,1000,1850,"COc1cc(/C=C/S(=O)(=O)N2CCC=CC2=O)cc2c1OCCO2 [Compound 76, 1-{[(E)-2-(8-methoxy-2,3-dihydro-1,4-benzodioxin-6-yl)ethenyl]sulfonyl}-5,6-dihydropyridin-2(1H)-one]"
950,1530,4850,C/C(=C/C1CCN(C(=O)Nc2ccc(F)cc2)CC1)C(=O)N1CCC=CC1=O [Compound 78]
1030,1910,2690,"C/C(=C/C1CCN(CC2CC2)CC1)C(=O)N1CCC=CC1=O [Compound 79, (Z)-1-(3-(1-(cyclopropylmethyl)piperidin-4-yl)-2-methylacryloyl)-5,6-dihydropyridin-2(1H)-one]"
360,800,2250,"O=C(Nc1ccc(F)cc1)N1CCC(/C=C/S(=O)(=O)N2CCC=CC2=O)CC1 [Compound 82, (E)-N-(4-fluorophenyl)-4-(2-((6-oxo-3,6-dihydropyridin-1(2H)-yl)sulfonyl)vinyl)piperidine-1-carboxamide]"
850,1670,3830,"O=C1C=CCCN1C(=O)/C=C/c1cnn(C2CC2)c1 [Compound 86, (E)-1-(3-(1-cyclopropyl-1H-pyrazol-4-yl)acryloyl)-5,6-dihydropyridin-2(1H)-one]"
440,1470,7070,"O=C1C=CCCN1C(=O)/C=C/c1cnn(CC(F)(F)F)c1 [Compound 90, 1 11-{(2E)-3-[1-(2,2,2-trifluoroethyl)-1H-pyrazol-4-yl]prop-2-enoyl}-5,6-dihydropyridin-2(1H)-one]"
